From patent US12139487B2, “Compounds and uses thereof” (Foghorn Therapeutics Inc., priority 2022, dated 2024)
Each block holds one compound with its values, some of them ahead of it.

Tested on: BRM-dependent transcription (BRG1 mutant lung cancer cell line A549)
Assay: BRM-dependent transcription, MMTV luciferase reporter in BRG1 mutant A549 cells
Assay type: cell-based
Conditions: Table 11; for IC50: A549-MMTV luciferase reporter, dexamethasone induced, 6 hours; for Ratio (MDA-MMTV IC50 (μM) divided by A549-MMTV IC50 (μM)): MMTV luciferase reporter cell lines, selectivity BRG1/BRM
In short: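 Compound dose series added to dexamethasone-stimulated A549 cells (BRG1 mutant) carrying a BRM-dependent mouse mammary tumor virus luciferase reporter; luminescence measured at 6 h post-stimulation.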

IC50 (Homo sapiens, A549, 6 h): 7.4 nM
Ratio (MDA-MMTV IC50 (μM) divided by A549-MMTV IC50 (μM)): 52.71
Compound: CCOc1nccc2c1OCCN2c1ccc2cnc(CNC(=O)c3cc(Cl)c4c(c3)S(=O)(=O)[C@@H](F)COC4)cc2n1 [Compound 477]

IC50 (Homo sapiens, A549, 6 h): 6.2 nM
Ratio (MDA-MMTV IC50 (μM) divided by A549-MMTV IC50 (μM)): 35.46
Compound: [2H]C([2H])([2H])C([2H])([2H])Oc1nc([C@@H](F)CF)ccc1-c1ccc2cnc(CNC(=O)c3cc(C(F)F)c4c(c3)S(=O)(=O)[C@@H](F)COC4)cc2n1 [Compound 479]

IC50 (Homo sapiens, A549, 6 h): 12 nM
Ratio (MDA-MMTV IC50 (μM) divided by A549-MMTV IC50 (μM)): 25.21
Compound: O=C(NCc1cc2nc(-c3ccc([C@@H](F)C(F)F)c(C4CC4)n3)ccc2cn1)c1cc(Cl)c2c(c1)S(=O)(=O)[C@@H](F)COC2 [Compound 482]

IC50 (Homo sapiens, A549, 6 h): 12 nM
Ratio (MDA-MMTV IC50 (μM) divided by A549-MMTV IC50 (μM)): 49.42
Compound: [2H]C([2H])([2H])C([2H])([2H])Oc1nc([C@H](F)CF)ccc1-c1ccc2cnc(CNC(=O)c3cc(Br)c4c(c3)S(=O)(=O)[C@@H](F)COC4)cc2n1 [Compound 485]

IC50 (Homo sapiens, A549, 6 h): 13.4 nM
Ratio (MDA-MMTV IC50 (μM) divided by A549-MMTV IC50 (μM)): 53.94
Compound: COc1ccc(-c2ccc3cnc(CNC(=O)c4cc(Br)c5c(c4)S(=O)(=O)[C@@H](F)COC5)cc3n2)nc1C1CC1 [Compound 487]

IC50 (Homo sapiens, A549, 6 h): 11.8 nM
Ratio (MDA-MMTV IC50 (μM) divided by A549-MMTV IC50 (μM)): 35.95
Compound: [2H]C([2H])([2H])C([2H])([2H])Oc1nc([C@@H](F)CF)ccc1-c1ccc2cnc(CNC(=O)c3cc(Br)c4c(c3)S(=O)(=O)[C@@H](F)COC4)cc2n1 [Compound 489]

IC50 (Homo sapiens, A549, 6 h): 7.9 nM
Ratio (MDA-MMTV IC50 (μM) divided by A549-MMTV IC50 (μM)): 26.59
Compound: O=C(NCc1cc2nc(-c3ccc([C@H](F)C(F)F)c(C4CC4)n3)ccc2cn1)c1cc(C(F)F)c2c(c1)S(=O)(=O)[C@@H](F)COC2 [Compound 490]

IC50 (Homo sapiens, A549, 6 h): 18.2 nM
Ratio (MDA-MMTV IC50 (μM) divided by A549-MMTV IC50 (μM)): 23.59
Compound: O=C(NCc1cc2nc(-c3ccc([C@H](F)C(F)F)c(C4CC4)n3)ccc2cn1)c1cc(Cl)c2c(c1)S(=O)(=O)[C@@H](F)COC2 [Compound 491]

IC50 (Homo sapiens, A549, 6 h): 16.6 nM
Ratio (MDA-MMTV IC50 (μM) divided by A549-MMTV IC50 (μM)): 24.09
Compound: O=C(NCc1cc2nc(-c3ccc([C@H](F)C(F)F)c(C4CC4)n3)ccc2cn1)c1cc(Br)c2c(c1)S(=O)(=O)[C@@H](F)COC2 [Compound 492]

IC50 (Homo sapiens, A549, 6 h): 5.7 nM
Ratio (MDA-MMTV IC50 (μM) divided by A549-MMTV IC50 (μM)): 28.82
Compound: COCCCOc1cnc2c(c1)OCCN2c1ccc2cnc(CNC(=O)c3cc(C(F)F)c4c(c3)S(=O)(=O)[C@@H](F)COC4)cc2n1 [Compound 494]

IC50 (Homo sapiens, A549, 6 h): 15.1 nM
Ratio (MDA-MMTV IC50 (μM) divided by A549-MMTV IC50 (μM)): 32.03
Compound: [2H]C([2H])([2H])C([2H])([2H])Oc1nc(C(F)F)ccc1-c1ccc2cnc(CNC(=O)c3cc(Cl)c4c(c3)S(=O)(=O)[C@@H](F)COC4)cc2n1 [Compound 495]

IC50: 5.9 nM
Ratio (MDA-MMTV IC50 (μM) divided by A549-MMTV IC50 (μM)): 38.20
Compound: C[C@@H]1CCN1c1cnc2c(-c3ccc4cnc(CNC(=O)c5cc(Cl)c6c(c5)S(=O)(=O)[C@@H](F)COC6)cc4n3)cccc2c1 [Compound 498]

IC50 (Homo sapiens, A549, 6 h): 15 nM
Ratio (MDA-MMTV IC50 (μM) divided by A549-MMTV IC50 (μM)): 24.97
Compound: [2H]C([2H])([2H])C([2H])([2H])Oc1nc(C(C)(F)F)ccc1-c1ccc2cnc(CNC(=O)c3cc(Cl)c4c(c3)S(=O)(=O)[C@@H](F)COC4)cc2n1 [Compound 499]

IC50 (Homo sapiens, A549, 6 h): 9.6 nM
Ratio (MDA-MMTV IC50 (μM) divided by A549-MMTV IC50 (μM)): 38.00
Compound: [2H]C([2H])([2H])[C@@]([2H])(F)c1ccc(-c2ccc3cnc(CNC(=O)c4cc(Br)c5c(c4)S(=O)(=O)[C@@H](F)COC5)cc3n2)c(OC)n1 [Compound 502]

IC50: 13.5 nM
Ratio (MDA-MMTV IC50 (μM) divided by A549-MMTV IC50 (μM)): 30.86
Compound: [2H]C([2H])([2H])Oc1ccc(-c2ccc3cnc(CNC(=O)c4cc(Cl)c5c(c4)S(=O)(=O)[C@@H](F)COC5)cc3n2)nc1C1CC1(F)F (stereo partly drawn) [Compound 507]

IC50: 20.2 nM
Ratio (MDA-MMTV IC50 (μM) divided by A549-MMTV IC50 (μM)): 25.33
Compound: CCOc1nc(C(C)(F)F)ccc1-c1ccc2cnc(CNC(=O)c3cc(F)c4c(c3)S(=O)(=O)[C@@H](F)COC4)cc2n1 [Compound 509]

IC50 (Homo sapiens, A549, 6 h): 14.6 nM
Ratio (MDA-MMTV IC50 (μM) divided by A549-MMTV IC50 (μM)): 22.06
Compound: CCOc1nc(C(F)F)ncc1-c1ccc2cnc(CNC(=O)c3cc(C(F)F)c4c(c3)S(=O)(=O)[C@@H](F)COC4)cc2n1 [Compound 510]

IC50 (Homo sapiens, A549, 6 h): 10 nM
Ratio (MDA-MMTV IC50 (μM) divided by A549-MMTV IC50 (μM)): 23.26
Compound: COCCOc1nn(-c2ccc3cnc(CNC(=O)c4cc(Cl)c5c(c4)S(=O)(=O)[C@@H](F)COC5)cc3n2)cc1F [Compound 512]

IC50 (Homo sapiens, A549, 6 h): 13.7 nM
Ratio (MDA-MMTV IC50 (μM) divided by A549-MMTV IC50 (μM)): 27.47
Compound: COCCOc1cnc2c(-c3ccc4cnc(CNC(=O)c5cc(Cl)c6c(c5)S(=O)(=O)[C@@H](F)COC6)cc4n3)cccc2c1 [Compound 513]

More lines, now with the values behind:

Compound: O=C(NCc1cc2nc(-c3ccc([C@@H](F)C(F)F)c(C4CC4)n3)ccc2cn1)c1cc(C(F)F)c2c(c1)S(=O)(=O)[C@@H](F)COC2 [Compound 476]
IC50 (Homo sapiens, A549, 6 h): 22.4 nM
Ratio (MDA-MMTV IC50 (μM) divided by A549-MMTV IC50 (μM)): 21.45

Compound: [2H]C([2H])([2H])C([2H])([2H])Oc1nc([C@H](F)CF)ccc1-c1ccc2cnc(CNC(=O)c3cc(C(F)F)c4c(c3)S(=O)(=O)[C@@H](F)COC4)cc2n1 [Compound 478]
IC50 (Homo sapiens, A549, 6 h): 10.4 nM
Ratio (MDA-MMTV IC50 (μM) divided by A549-MMTV IC50 (μM)): 33.55

Compound: [2H]C([2H])([2H])Oc1ccc(-c2ccc3cnc(CNC(=O)c4cc(Br)c5c(c4)S(=O)(=O)[C@@H](F)COC5)cc3n2)nc1C1CC1(F)F (stereo partly drawn) [Compound 480]
IC50 (Homo sapiens, A549, 6 h): 9.4 nM
Ratio (MDA-MMTV IC50 (μM) divided by A549-MMTV IC50 (μM)): 38.09

Compound: CCOc1nc([C@H](F)CF)ccc1-c1ccc2cnc(CNC(=O)c3cc(Cl)c4c(c3)S(=O)(=O)[C@@H](F)COC4)cc2n1 [Compound 481]
IC50: 10.2 nM
Ratio (MDA-MMTV IC50 (μM) divided by A549-MMTV IC50 (μM)): 50.79

Compound: O=C(NCc1cc2nc(-c3ccc([C@@H](F)C(F)F)c(C4CC4)n3)ccc2cn1)c1cc(Br)c2c(c1)S(=O)(=O)[C@@H](F)COC2 [Compound 483]
IC50 (Homo sapiens, A549, 6 h): 11.1 nM
Ratio (MDA-MMTV IC50 (μM) divided by A549-MMTV IC50 (μM)): 28.21

Compound: [2H]C([2H])([2H])OCCOc1cnc2c(c1)OCCN2c1ccc2cnc(CNC(=O)c3cc(C(F)F)c4c(c3)S(=O)(=O)[C@@H](F)COC4)cc2n1 [Compound 484]
IC50 (Homo sapiens, A549, 6 h): 5.4 nM
Ratio (MDA-MMTV IC50 (μM) divided by A549-MMTV IC50 (μM)): 28.00

Compound: [2H]C([2H])([2H])C([2H])([2H])Oc1nc(C(F)F)ccc1-c1ccc2cnc(CNC(=O)c3cc(Br)c4c(c3)S(=O)(=O)[C@@H](F)COC4)cc2n1 [Compound 486]
IC50 (Homo sapiens, A549, 6 h): 13.3 nM
Ratio (MDA-MMTV IC50 (μM) divided by A549-MMTV IC50 (μM)): 33.87

Compound: O=C(NCc1cc2nc(-c3ccc(C(F)F)nc3OCC3CC3)ccc2cn1)c1cc(F)c2c(c1)S(=O)(=O)[C@@H](F)COC2 [Compound 488]
IC50 (Homo sapiens, A549, 6 h): 7.9 nM
Ratio (MDA-MMTV IC50 (μM) divided by A549-MMTV IC50 (μM)): 26.53

Compound: [2H]C([2H])([2H])Oc1ccc(-c2ccc3cnc(CNC(=O)c4cc(Br)c5c(c4)S(=O)(=O)[C@@H](F)COC5)cc3n2)nc1[C@H]1CC1(F)F [Compound 493]
IC50 (Homo sapiens, A549, 6 h): 19.4 nM
Ratio (MDA-MMTV IC50 (μM) divided by A549-MMTV IC50 (μM)): 49.65

Compound: C[C@@H]1CCN1c1cnc2c(-c3ccc4cnc(CNC(=O)c5cc(F)c6c(c5)S(=O)(=O)[C@@H](F)COC6)cc4n3)cccc2c1 [Compound 496]
IC50: 1.6 nM
Ratio (MDA-MMTV IC50 (μM) divided by A549-MMTV IC50 (μM)): 21.18

Compound: C[C@@H]1CCN1c1cnc2c(-c3ccc4cnc(CNC(=O)c5cc(Cl)c6c(c5)S(=O)(=O)[C@@H](F)COC6)cc4n3)cccc2c1 [Compound 497]
IC50: 12.4 nM
Ratio (MDA-MMTV IC50 (μM) divided by A549-MMTV IC50 (μM)): 29.41

Compound: [2H]C([2H])([2H])OC([2H])([2H])C([2H])([2H])Oc1cnc2c(c1)OCCN2c1ccc2cnc(CNC(=O)c3cc(C(F)F)c4c(c3)S(=O)(=O)[C@@H](F)COC4)cc2n1 [Compound 500]
IC50 (Homo sapiens, A549, 6 h): 7.7 nM
Ratio (MDA-MMTV IC50 (μM) divided by A549-MMTV IC50 (μM)): 21.12

Compound: CCOc1nn(-c2ccc3cnc(CNC(=O)c4cc(C(F)F)c5c(c4)S(=O)(=O)[C@@H](F)COC5)cc3n2)cc1F [Compound 501]
IC50 (Homo sapiens, A549, 6 h): 13 nM
Ratio (MDA-MMTV IC50 (μM) divided by A549-MMTV IC50 (μM)): 30.55

Compound: O=C(NCc1cc2nc(-c3cccc4c3OC(F)(F)O4)ccc2cn1)c1cc(C(F)F)c2c(c1)S(=O)(=O)[C@@H](F)COC2 [Compound 503]
IC50 (Homo sapiens, A549, 6 h): 17.3 nM
Ratio (MDA-MMTV IC50 (μM) divided by A549-MMTV IC50 (μM)): 33.25

Compound: CCOc1nc(C(F)F)ncc1-c1ccc2cnc(CNC(=O)c3cc(Cl)c4c(c3)S(=O)(=O)[C@@H](F)COC4)cc2n1 [Compound 505]
IC50 (Homo sapiens, A549, 6 h): 10.6 nM
Ratio (MDA-MMTV IC50 (μM) divided by A549-MMTV IC50 (μM)): 21.63

Compound: [2H]C([2H])([2H])Oc1ccc(-c2ccc3cnc(CNC(=O)c4cc(Cl)c5c(c4)S(=O)(=O)[C@@H](F)COC5)cc3n2)nc1C1CC1(F)F (stereo partly drawn) [Compound 506]
IC50 (Homo sapiens, A549, 6 h): 10.2 nM
Ratio (MDA-MMTV IC50 (μM) divided by A549-MMTV IC50 (μM)): 42.09

Compound: COCCOc1nn(-c2ccc3cnc(CNC(=O)c4cc(F)c5c(c4)S(=O)(=O)[C@@H](F)COC5)cc3n2)cc1F [Compound 508]
IC50 (Homo sapiens, A549, 6 h): 11.5 nM
Ratio (MDA-MMTV IC50 (μM) divided by A549-MMTV IC50 (μM)): 21.72
